Source: US11774396B2, “Systems and methods for patterning and spatial electrochemical mapping of cells” (President and Fellows of Harvard College, priority 2020, dated 2023)

How the values were obtained:
MDCK cells [1] = system: MDCK cells
Description: This example describes a method using cross-electrode impedance mapping to quantify cell adhesion.
Ethylenediaminetetraacetic acid (EDTA) is applied to the cells. EDTA is a calcium chelator that removes Ca^2+ needed for integrin proteins to maintain cell adhesion.
FIG. 6b is a data plot showing mean normalized impedances for different regions of the cell culture over time as specified in the map 601. FIG. 6cc are histograms of the normalized impedance values before, during, and after a washout of EDTA across the array.

MDCK cells [2] = experiment: Wound healing assay: electrochemical patterning and impedance mapping of regrowth; assay type: cell-based, Canine; details: 1 μM, over the course of 72 hours; control culture took ~3 days to fill in the wound
Description: This example describes a combined application of both the cross-electrode impedance mapping and cell patterning is a wound healing assay.
These assays gauge cell growth rate and metabolism and can be useful for screening drugs affecting these parameters. Compared to the electrochemical patterning described herein, other tools mechanically generate a wound in a cell culture via a mechanical scratch which is both difficult to control and limiting in terms of wound pattern.
In this example, a wound is made in MDCK cells and then the growth is mapped in real-time. […] These patterns were defined by applying electrode currents of −10 nA for 40 s versus a Ag/AgCl pseudo reference electrode. The regrowth of the culture was then measured using the impedance mapping method.

Row | SMILES | time course over which the cells detach with EDTA applied (MDCK cells [1]; 5 mM EDTA application at t=~5 min) | time course over which the cells re-attach after EDTA washout (MDCK cells [1]; EDTA washed out by adding normal culture media) | regrowth of the wound in the cell culture (normalized cross-electrode impedance maps) (MDCK cells [2])
1 | O=C(O)CN(CCN(CC(=O)O)CC(=O)O)CC(=O)O [EDTA, Ethylenediaminetetraacetic acid] | ~50 min | ~200 min | –
2 | C=C1[C@@H](C)[C@H]2[C@H](Cc3ccccc3)NC(=O)[C@]23OC(=O)/C=C/[C@H](O)CCC[C@@H](C)C/C=C/[C@H]3[C@@H]1O [cytochalasin B] | – | – | very little growth
